Laboratory results taken from patent US20150359854A1 (HUMAN MATRIX SCIENCES, LLC, priority 2012, published 2015).
Entries after “also recorded” stand apart in the source; their conditions may differ.

Tests used:
tropoelastin = test: Metabolically labeled tropoelastin in cell extracts and conditioned media (secretion); format: cell-based, human; settings: 10 nmol/L insulin, 1 hour
Method: Cells were plated in 35-mm dishes at a density of 100,000 cells per dish and were grown to confluency. Two microcuries [3H]-valine per milliliter fresh medium supplemented with 2% FBS was added 2 hours before the indicated treatments. At the end of each experiment, the conditioned medium was collected and subjected to immunoprecipitation using anti-tropoelastin antibody. The cell layers were washed with PBS and incubated using radioimmunoprecipitation lysis buffer for 10 minutes on ice. After centrifugation, the supernatants were collected and subjected to immunoprecipitation using anti-tropoelastin antibody. […] Final results (counts per minute) reflecting the total amount of [3H]-valine-labeled insoluble elastin in individual cultures were normalized per their DNA contents (assessed using the Qiagen […] isolation) Tissue Kit) and expressed as percentage of control values. At the end of all treatments, cells from quadruplicate cultures in each experimental group were lysed using NP40 cell lysis buffer (Invitrogen Corp.). Thirty micrograms of protein extracts from each sample was suspended in standard sample buffer, resolved on 4% to 12% gradient SDS-PAGE gels, transferred to nitrocellulose membranes, and subjected to Western blotting using antibodies. At the end of indicated treatments, the cultured cells were lysed as described, and 300 μL aliquots of cell extracts containing […] were incubated at 4° C. for 3 hours with the aliquots of protein G bound DYNABEADS® (Invitrogen Corp.) that were conjugated with either rabbit polyclonal anti-tropoelastin, goat polyclonal anti-Glut10, or rabbit polyclonal anti-S-Gal antibodies. The beads carrying the final immunoprecipitation products were then washed with PBS, resuspended in sample buffer, and boiled for 5 minutes. The released proteins were then resolved on SDS-PAGE gel and subjected to Western blotting using indicated antibodies.

retinoblastoma protein = test: Western blotting of retinoblastoma protein phosphorylation; format: cell-based, human; settings: 30-minute treatment, 10 nmol/L insulin
Source text: (§1) At the end of all treatments, cells from quadruplicate cultures in each experimental group were lysed using NP40 cell lysis buffer (Invitrogen Corp.). Thirty micrograms of protein extracts from each sample was suspended in standard sample buffer, resolved on 4% to 12% gradient SDS-PAGE gels, transferred to nitrocellulose membranes, and subjected to Western blotting using antibodies.

IGF-1R = target: T1, IGF-1R (Homo sapiens, UniProt P08069); test: Immunoprecipitation and anti-phospho-Tyr blotting of IGF-1R; format: cell-based; settings: 30 minutes, 0.5 to 10 nmol/L insulin or 10 nmol/L IGF-1, AoSMCs
T1 construct: 30-minute treatment of cultured AoSMCs; endogenous in cells; host or cells: human aortic smooth muscle cells (AoSMCs), second passage
Method: At the end of indicated treatments, the cultured cells were lysed as described, and 300 μL aliquots of cell extracts containing 300 μL proteins were incubated at 4° C. for 3 hours with the aliquots of protein G bound DYNABEADS® (Invitrogen Corp.) that were conjugated with either rabbit polyclonal anti-tropoelastin, goat polyclonal anti-Glut10, or rabbit polyclonal anti-S-Gal antibodies. The beads carrying the final immunoprecipitation products were then washed with PBS, resuspended in sample buffer, and boiled for 5 minutes. The released proteins were then resolved on SDS-PAGE gel and subjected to Western blotting using indicated antibodies.

[1] = test system: human aortic SMCs (AoSMCs); test: Immunocytochemistry and morphometry of elastic fibers in AoSMC cultures; format: cell-based; settings: 24-hour treatment, 0.5 to 100 nmol/L insulin, confluent AoSMCs, 2% FBS
Source text: Human aortic SMCs (AoSMCs) were propagated from small fragments of aortic media collected from autopsy. Guidelines for the protection of human subjects of the US Department of Health and Human Services and of the Declaration of Helsinki were followed in obtaining tissues for this investigation. Cells migrating from the cultured explants of aortic media were routinely passaged (up to three times) via trypsinization using 0.2% trypsin-0.02% EDTA, and were maintained in DMEM supplemented with 5% FBS and 1% antibiotic-antimycotic mix. The second and third passages of cells that migrated from the original explants of aortic media were routinely probed with antibodies recognizing the SMC-specific α-actin to monitor the preservation of the SMC phenotype. All cells were initially plated at 100,000 cells per dish for immediate confluency so they would begin extracellular matrix production. The cell cultures committed to particular experiments were then transferred to DMEM containing either 2% FBS or to serum-free medium before initiation of particular treatments.
At the end of treatments, confluent cultures of AoSMCs were fixed in cold 100% methanol at −20° C. for 30 minutes, and blocked with 1% normal goat serum for 1 hour. The cultures were then incubated for 1 hour with 10 μg/mL polyclonal antibodies to tropoelastin and/or with 10 μg/mL monoclonal antibody to SMC-specific α-actin. All cultures were then incubated for another hour with the respective fluorescein-conjugated secondary antibodies (fluorescein-conjugated goat anti-rabbit or anti-mouse). Nuclei were counterstained with red-fluorescent propidium iodide or blue-fluorescent DAPI. The cultures were then mounted in ethanol and examined using a microscope (Eclipse E1000; Nikon Instruments, Inc., Melville, N.Y.) attached to a cooled CCD camera (Retiga EX; QImaging Corp., Vancouver, BC, Canada) and a computer-generated morphometric analysis system (Image-Pro Plus software; Media Cybernetics, Inc., Bethesda, Md.). In each analyzed group, 50 low-power fields from three separate cultures were analyzed, and the areas occupied by immunodetectable elastic fibers were expressed as a percentage of the entire analyzed field.

cdk-2 = test: Western blotting of cdk-2 phosphorylation; format: cell-based, human; settings: 30-minute treatment, 10 nmol/L insulin
Source text: as §1

[2] = test system: human aortic SMCs (AoSMCs); test: Cell proliferation ([3H]-thymidine incorporation and Ki-67 immunodetection); format: cell-based; settings: 48-hour AoSMC cultures, 0.5 to 100 nmol/L insulin
Method: Cells were plated in 35-mm culture dishes (100,000 cells per dish) containing DMEM supplemented with 5% FBS. The cultures were grown to 70% to 80% confluency and serum-starved overnight to synchronize the cell cycles. […] The total amount of [3H]-thymidine-labeled DNA in individual cultures was then assessed via scintillation counting. […] The cultures were counterstained with hematoxylin. In each experimental group, quadruplicate cultures were examined under 200× magnification. The percentage of positively stained cells was determined and averaged over the 30 fields examined.

[3] = test system: fibronectin or collagen I; test: Immunodetection of deposited fibronectin and collagen I; format: cell-based, human; settings: insulin-treated cultures of both cell types
[4] = after 2 hours [3H]-valine and BAPN, serum-free
[5] = after 3 hours [3H]-valine and β-aminopropionitrile, 2% FBS

- phosphorylation of IGF-1R (IGF-1R): did not affect phosphorylation
Substance: insulin
- immunodetected soluble tropoelastin in conditioned media vs untreated (tropoelastin; [4]): significantly more
- metabolically labeled soluble tropoelastin in cell extracts vs untreated (tropoelastin; [4]): significantly less
- less metabolically labeled tropoelastin in cell layer extracts than untreated controls (tropoelastin; [5]): 66%±6%
- more metabolically labeled tropoelastin in conditioned media than untreated counterparts (tropoelastin; [5]): 94%±4%
- site-specific phosphorylation of retinoblastoma protein on threonine 821 (retinoblastoma protein): did not
- production of immunodetected elastic fibers [1]: dose-dependent increase; also recorded: induce new elastogenesis in a dose-dependent manner
- phosphorylation of cdk-2 on tyrosine 160 (cdk-2): did not induce phosphorylation
- basic proliferative rate ([3H]-thymidine incorporation, Ki-67) [2]: did not induce any up-regulation
- deposition of immunodetectable fibronectin or collagen I [3]: did not reveal any up-regulation
